Results as given in PMC3058180 (Journal of pharmaceutical sciences, 2010).

System: A/Wuhan/359/95 E119V (oseltamivir-resistant)
Assay type: cell-based, influenza A virus
Details: read-out: IC50 (nM of Zanamivir)

CC(=O)N[C@H]1[C@H]([C@H](O)[C@H](O)CO)OC(C(=O)O)=C[C@@H]1N=C(N)N [compound 1, Zanamivir]
IC50: 48000 nM
